US6410340B1, “Use of an 8.4 kDa protein as an immunophilin reagent in protein binding assays for immunosuppressive drugs” (Children's Research Institute, priority 2000, dated 2002)

Tests used:
52 kDa immunophilin = settings: Davis et al. 2000; cited from earlier work
5-8 kDa immunophilin = settings: cited from earlier work
8.4 kDa immunophilin [1] = biological target: T1, 8.4 kDa immunophilin (Bos taurus, UniProt P62992); test: Saturation analysis of tritiated FK-506 binding to calf thymus 8.4 kDa immunophilin (Scatchard, Hill plots); settings: tritiated FK-506, calf thymus 8.4 kDa immunophilin, EBDA/LIGAND
T1 construct: from tissue; host or cells: calf thymus
T1 sequence (P62992 1-74 limits assumed): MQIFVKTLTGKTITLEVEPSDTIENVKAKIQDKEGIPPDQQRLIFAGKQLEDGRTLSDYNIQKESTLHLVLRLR
Source text: Analytical data on purified immunophilins may be obtained conventionally. Association constants, specific binding activities, and numbers and types of binding sites can be obtained from Scatchard and Hill plots, using EBDA and LIGAND software. Isoelectric points (“pI”) can be obtained by isofocussing techniques. To obtain amino acid composition data, samples can be hydrolyzed by HCl gas in the presence of internal standards (e.g., norvaline and sarcosine), the products derivatized with a fluorescent reagent, and the derivatized amino acids separated on a Hewlett-Packard AMINO QUANT Analyzer. […]
An immunophilin protein binding assay (“IBA”) carried out in accordance with this invention can be performed by solution phase or solid phase methods. […] Following attainment of equilibrium, the amount of labeled drug bound to the immunophilin is determined. The amount of labeled drug bound will be reduced in proportion to the amount of analyte in a biological sample being analyzed. The quantitative relationship between the reduction of immunophilin-bound labeled drug and the concentration of the analyte in the unknown sample is determined by reference to a standard calibration curve. […] The amount of labeled drug bound to an immunophilin need not be determined directly; it may be determined by subtracting from the total amount of label added […] in the solution at equilibrium. […]

[2] = cited from earlier work; for fraction in the blood in the form of the parent compound: patients; for metabolites as share of all drug species in blood: rapamycin: trough blood samples
8.4 kDa immunophilin [3] = biological target: T1, 8.4 kDa immunophilin; test: Displacement of tritiated FK-506 from the 8.4 kDa immunophilin by RAP; assay type: binding, calf; settings: displacement of tritiated FK-506 by RAP; read-out: calculated Kd
Source text: An immunophilin protein binding assay (“IBA”) carried out in accordance with this invention can be performed by solution phase or solid phase methods. The basic principle underlying each method is the same, and is described in, e.g., Davis et al., Clin. Biochem. 33:1(2000) and the Soldin patents listed above. Briefly, in a competitive IBA, a competition equilibrium is set up between a tracer amount of labeled drug and the corresponding drug in unknown samples containing the drug or biologically-active metabolites for binding to specific binding sites on an immunophilin. Following attainment of equilibrium, the amount of labeled drug bound to the immunophilin is determined. The amount of labeled drug bound will be reduced in proportion to the amount of analyte in a biological sample being analyzed. The quantitative relationship between the reduction of immunophilin-bound labeled drug and the concentration of the analyte in the unknown sample is determined by reference to a standard calibration curve. […] The amount of labeled drug bound to an immunophilin need not be determined directly; it may be determined by subtracting from the total amount of label added […] in the solution at equilibrium. […]

8.4 kDa immunophilin [4] = biological target: T1, 8.4 kDa immunophilin; test: Binding of [mebmt-beta-3H]-CsA to the 8.4 kDa immunophilin; design: species or system calf; settings: too low to measure; dissociation constant could not be determined
Source text: A dissociation constant for [mebmt-beta-3H]-CsA with the 8.4 kDa immunophilin could not be determined, as the binding of this drug to the protein was too low to measure (0.13%).

| Molecule | binding to 52 kDa immunophilin (52 kDa immunophilin) | binding to 5-8 kDa immunophilin (5-8 kDa immunophilin) | other results |
| --- | --- | --- | --- |
| 7-0-demethyl sirolimus | substantially binds | substantially binds |  |
| 32,41-0-demethyl sirolimus | substantially binds | substantially binds |  |
| 41-0-demethyl sirolimus | substantially binds | substantially binds |  |
| C=CC[C@@H]1/C=C(\C)C[C@H](C)C[C@H](OC)[C@H]2O[C@@](O)(C(=O)C(=O)N3CCCC[C@H]3C(=O)O[C@H](/C(C)=C/[C@@H]3CC[C@@H](O)[C@H](OC)C3)[C@H](C)[C@@H](O)CC1=O)[C@H](C)C[C@@H]2OC [FK-506] |  |  | Kd (8.4 kDa immunophilin [1]): 0.8 nM; fraction in the blood in the form of the parent compound [2]: ¾; metabolites as share of all drug species in blood [2]: about 30% |
| CO[C@H]1C[C@@H]2CC[C@@H](C)[C@@](O)(O2)C(=O)C(=O)N2CCCC[C@H]2C(=O)O[C@H]([C@H](C)C[C@@H]2CC[C@@H](O)[C@H](OC)C2)CC(=O)[C@H](C)/C=C(\C)[C@@H](O)[C@@H](OC)C(=O)[C@H](C)C[C@H](C)/C=C/C=C/C=C/1C [RAP, rapamycin] |  |  | Kd (8.4 kDa immunophilin [3]): 0.08 nM; fraction in the blood in the form of the parent compound [2]: ½; metabolites as share of all drug species in blood [2]: at least 50% |
| (C1-C8 or C32-C36) OH sirolimus | substantially binds | substantially binds |  |
| (C9-C23)-OH-sirolimus | all but the fourth metabolite substantially binds | all but the fourth metabolite substantially binds |  |
| cyclosporin A [CsA] |  |  | binding of the drug to the protein (8.4 kDa immunophilin [4]): 0.13% |
